Assay results: US20220033434A1, “ANDROGEN RECEPTOR NUCLEIC ACIDS AND USES THEREOF” (Avidity Biosciences, Inc., priority 2016, published 2022)
In the oligonucleotide strings, read from the 5' end, every base follows the letter of its sugar. An asterisk marks phosphorothioate; unmarked linkages are phosphodiester. Other units and linkages are bracketed, terminal groups are in braces. A string of capitals states the bases alone. d = 2'-deoxy (DNA); m = 2'-O-methyl; f = 2'-fluoro

Legend:
Assay type in all cases: cell-based, human
AR FL(1) = test: AR protein knock-down by Western blot after siRNA transfection in 22RV1 cells: AR FL(1); details: 5 nM siRNA, 50 h post transfection, compared to controls
Procedure: (§1) In some instances, a set of AR siRNAs were identified that were predicted to be specific in human and non-human primates (NHP) and cross-reactive with NHPs but not rodent AR mRNA. To identify AR siRNAs that regulate both full length AR and clinically relevant AR splice variants, the search for AR siRNAs was focused primarily, but not exclusively, on exons 1, 2 and 3 of the AR gene, which are common to most AR isoforms. The resulting set of 50 AR siRNAs (Tables 1-3) was assessed in two prostate cancer lines that express high levels of either clinically relevant AR splice variants (22RV1, ATCC) or a full length AR T877A LBD mutant (LNCaP, ATCC). The response of LNCaP tumors in xenograft models to AR antagonists is known to correlate well with clinical responses.
(§2) To monitor their ability to downregulate various AR isoforms, each siRNA was formulated at a single final concentration of 5 nM with a commercially-available transfection reagent (Lipofectamine RNAiMAX, Life Technologies) according to the manufacturer's “forward transfection” instructions. At 50 h (22RV1) and 72 h (LNCaP) post transfection, cells were harvested, and lysed in RIPA buffer (Pierce) supplemented with HALT protease inhibitors (Pierce) using standard procedures. The protein concentration was determined using a BCA protein concentration kit (Pierce). To monitor AR levels in these lysates, proteins (30 ug/lane) were separated by PAGE on BOLT 4-12% Bis-Tris PA gels (Life Technologies), transferred to nitrocellulose using an iBlot dry blot system (Thermo Fisher), and probed with specific antibodies against a region of the N-terminal domain of human AR that is common in known clinically relevant splice variants (N20, Santa Cruz Biotech). A second antibody against α-Tubulin was used as control (P16, Santa Cruz Biotech). Levels of these proteins in the respective cell lysates were quantified on an Odyssey imaging system (LICOR) using appropriate secondary antibodies linked to IRDyes (800CW, 680RD).

AR-SV(2) = test: AR protein knock-down by Western blot after siRNA transfection in 22RV1 cells: AR-SV(2); details: 5 nM siRNA, 50 h post transfection, compared to controls
Procedure: as §1, §2

AR-SV(3) = test: AR protein knock-down by Western blot after siRNA transfection in 22RV1 cells: AR-SV(3); details: 5 nM siRNA, 50 h post transfection, compared to controls
Procedure: as §1, §2

[1] = test system: AR FL (full length AR T877A LBD mutant); test: AR protein knock-down by Western blot after siRNA transfection in LNCaP cells: AR FL; details: 5 nM siRNA, 72 h post transfection, compared to controls
Procedure: as §1, §2

Substance | % KD AR Protein 22RV1 AR FL(1) (AR FL(1)) [%] | % KD AR Protein 22RV1 AR-SV(2) (AR-SV(2)) [%] | % KD AR Protein 22RV1 AR-SV(3) (AR-SV(3)) [%] | % KD AR Protein LNCaP AR FL [1] [%]
XD-01814: AR siRNA with chemical modification, Id # 1784; sense X05323 (SEQ ID NO: 153), antisense X05324 (SEQ ID NO: 154) (sense mCmAfAmUfUmAfCmUfUmAfGmGfGmGfGmCfAmCfUdT*dT; antisense fAfGmUfGmCfCmCfCmCfUmAfAmGfUmAfAmUfUmGdT*dT) | −7 | 20 | −30 | 94
XD-01848: AR siRNA with chemical modification, Id # 3101; sense X05391 (SEQ ID NO: 221), antisense X05392 (SEQ ID NO: 222) (sense mGmUfCmAfCmAfCmAfUmUfGmAfAmGfGmCfUmAfUdT*dT; antisense fAfUmAfGmCfCmUfUmCfAmAfUmGfUmGfUmGfAmCdT*dT) | 87 | 31 | 27 | 101
XD-01836: AR siRNA with chemical modification, Id # 2925; sense X05367 (SEQ ID NO: 197), antisense X05368 (SEQ ID NO: 198) (sense mAmUfUmGfAmUfAmAfAmUfUmCfCmGfAmAfGmGfAdT*dT; antisense fUfCmCfUmUfCmGfGmAfAmUfUmUfAmUfCmAfAmUdT*dT) | 87 | 83 | 73 | 91
XD-01859: AR siRNA with chemical modification, Id # 3481; sense X05413 (SEQ ID NO: 243), antisense X05414 (SEQ ID NO: 244) (sense mGmGfCmAfCmCfUmCfUmCfUmCfAmAfGmAfGmUfUdT*dT; antisense fAfAmCfUmCfUmUfGmAfGmAfGmAfGmGfUmGfCmCdT*dT) | 87 | −23 | −49 | 100
XD-01824: AR siRNA with chemical modification, Id # 2741; sense X05343 (SEQ ID NO: 173), antisense X05344 (SEQ ID NO: 174) (sense mUmGfCmCfAmGfGmGfAmCfCmAfUmGfUmUfUmUfGdT*dT; antisense fCfAmAfAmAfCmAfUmGfGmUfCmCfCmUfGmGfCmAdT*dT) | 3 | −32 | −44 | 45
XD-01857: AR siRNA with chemical modification, Id # 3473; sense X05409 (SEQ ID NO: 239), antisense X05410 (SEQ ID NO: 240) (sense mCmCfGmAfAmUfGmAfGmGfCmAfCmCfUmCfUmCfUdT*dT; antisense fAfGmAfGmAfGmGfUmGfCmCfUmCfAmUfUmCfGmGdT*dT) | 79 | −7 | 1 | 100
XD-01823: AR siRNA with chemical modification, Id # 2739; sense X05341 (SEQ ID NO: 171), antisense X05342 (SEQ ID NO: 172) (sense mAmCfUmGfCmCfAmGfGmGfAmCfCmAfUmGfUmUfUdT*dT; antisense fAfAmAfCmAfUmGfGmUfCmCfCmUfGmGfCmAfGmUdT*dT) | −5 | 0 | −19 | 79
XD-01842: AR siRNA with chemical modification, Id # 2940; sense X05379 (SEQ ID NO: 209), antisense X05380 (SEQ ID NO: 210) (sense mAmGfGmAfAmAfAmAfUmUfGmUfCmCfAmUfCmUfUdT*dT; antisense fAfAmGfAmUfGmGfAmCfAmAfUmUfUmUfUmCfCmUdT*dT) | 89 | 94 | 84 | 101
XD-01839: AR siRNA with chemical modification, Id # 2933; sense X05373 (SEQ ID NO: 203), antisense X05374 (SEQ ID NO: 204) (sense mAmUfUmCfCmGfAmAfGmGfAmAfAmAfAmUfUmGfUdT*dT; antisense fAfCmAfAmUfUmUfUmUfCmCfUmUfCmGfGmAfAmUdT*dT) | 76 | 62 | 56 | 93
XD-01858: AR siRNA with chemical modification, Id # 3475; sense X05411 (SEQ ID NO: 241), antisense X05412 (SEQ ID NO: 242) (sense mGmAfAmUfGmAfGmGfCmAfCmCfUmCfUmCfUmCfAdT*dT; antisense fUfGmAfGmAfGmAfGmGfUmGfCmCfUmCfAmUfUmCdT*dT) | 93 | 25 | 66 | 99
XD-01833: AR siRNA with chemical modification, Id # 2922; sense X05361 (SEQ ID NO: 191), antisense X05362 (SEQ ID NO: 192) (sense mAmCfUmAfUmUfGmAfUmAfAmAfUmUfCmCfGmAfAdT*dT; antisense fUfUmCfGmGfAmAfUmUfUmAfUmCfAmAfUmAfGmUdT*dT) | 94 | 91 | 77 | 91
XD-01819: AR siRNA with chemical modification, Id # 2185; sense X05333 (SEQ ID NO: 163), antisense X05334 (SEQ ID NO: 164) (sense mCmUfGmCfGmUfAmCfCmAfGmAfGmUfCmGfCmGfAdT*dT; antisense fUfCmGfCmGfAmCfUmCfUmGfGmUfAmCfGmCfAmGdT*dT) | 15 | 47 | 45 | 92
XD-01850: AR siRNA with chemical modification, Id # 3107; sense X05395 (SEQ ID NO: 225), antisense X05396 (SEQ ID NO: 226) (sense mCmAfUmUfGmAfAmGfGmCfUmAfUmGfAmAfUmGfUdT*dT; antisense fAfCmAfUmUfCmAfUmAfGmCfCmUfUmCfAmAfUmGdT*dT) | 86 | 14 | 5 | 82
XD-01838: AR siRNA with chemical modification, Id # 2931; sense X05371 (SEQ ID NO: 201), antisense X05372 (SEQ ID NO: 202) (sense mAmAfAmUfUmCfCmGfAmAfGmGfAmAfAmAfAmUfUdT*dT; antisense fAfAmUfUmUfUmUfCmCfUmUfCmGfGmAfAmUfUmUdT*dT) | 85 | 65 | 67 | 88
XD-01837: AR siRNA with chemical modification, Id # 2927; sense X05369 (SEQ ID NO: 199), antisense X05370 (SEQ ID NO: 200) (sense mUmGfAmUfAmAfAmUfUmCfCmGfAmAfGmGfAmAfAdT*dT; antisense fUfUmUfCmCfUmUfCmGfGmAfAmUfUmUfAmUfCmAdT*dT) | 87 | 94 | 86 | 91
XD-01847: AR siRNA with chemical modification, Id # 3020; sense X05389 (SEQ ID NO: 219), antisense X05390 (SEQ ID NO: 220) (sense mUmGfGmUfAmAfUmCfUmGfAmAfAmCfUmAfCmAfGdT*dT; antisense fCfUmGfUmAfGmUfUmUfCmAfGmAfUmUfAmCfCmAdT*dT) | 28 | −10 | −68 | 69
XD-01840: AR siRNA with chemical modification, Id # 2935; sense X05375 (SEQ ID NO: 205), antisense X05376 (SEQ ID NO: 206) (sense mUmCfCmGfAmAfGmGfAmAfAmAfAmUfUmGfUmCfCdT*dT; antisense fGfGmAfCmAfAmUfUmUfUmUfCmCfUmUfCmGfGmAdT*dT) | 89 | 89 | 75 | 97
